Assay results: patent US9375435B2, “Use of a DNA expression construct” (MOLOGEN AG, priority 2010, dated 2016)

Experiments:
[1] = test system: A375 melanoma xenotransplanted-tumours; assay: Chemo-sensitization of xenotransplanted tumours, intratumoral jet injection; type: in vivo; conditions: twice 150 μg DNA construct, twice 0.5 mg/kg vindesine where indicated
Method: A) In vitro chemo-sensitization assay results. B) Chemo-sensitization of A375 melanoma xenotransplanted tumors.
The intratumoral jet injection was performed using twice 150 μg of the dumbbell-shaped DNA construct and where indicated additionally twice 0.5 mg/kg tumour vindesine.
On the y-axis is the median of the relative tumour volume shown for the indicated days after transfer (x-axis).

A375 melanoma cells = conditions: vindesine 12.8 μg per ml
Excerpt: In further experiments the effect of TNF-α expression on cell vitality and tumour volume was investigated.

CC[C@]1(O)C[C@@H]2CN(CCc3c([nH]c4ccccc34)[C@@](C(=O)OC)(c3cc4c(cc3OC)N(C)[C@H]3[C@@](O)(C(N)=O)[C@H](O)[C@]5(CC)C=CCN6CC[C@]43[C@@H]65)C2)C1 [vindesine]
median of the relative tumour volume [1]: reduces the average tumour volume
relative cell vitality (A375 melanoma cells): 0.6
